# US6939860B2, “Composition and method for treatment of neoplastic diseases associated with elevated matrix metalloproteinase activities using catechin compounds” (priority 2002, dated 2005)
# Legend:
# [1] = tested on: Human Breast Cancer Cells MDA-MB 231; assay: Cell proliferation study (MTT stain), breast cancer cells; details: MDA-MB 231, 4 days
# Description: To study the effects of catechins and dietary composition on cell proliferation of human cancer cells, various human cancer cell lines were cultured in 24 well plates using the culture conditions specified by ATCC (supplier of cell lines). The cells were generally incubated for 3 to 4 days (before coalescence was reached). The total number of cells in a culture well was determined by staining the cells with vital stain (MTT) followed by the determination of OD of the stain solution. MTT only stain the dead cells and the amount of stain uptake correlates with the number of dead cells in the culture. Percent inhibition was calculated by comparing the OD of the treatment groups with the OD of the control groups. In these studies, 5×10^4 breast cancer cells (MDAMB 231) were seeded in each of the wells of 24-well plate. […] Plates were incubated in ambient air (without supplemental CO2) for a period of 4 days. At the end of the period, the culture media were withdrawn and the cells in each well were stained with MTT. Excess MTT stain was washed off. The MTT stained cancer cells were dissolved in 1 ml DMSO solution. The optical density (OD) of the solution was determined for each well. The OD for the well was directly proportional to the number of dead cells. The OD of the MTT stained cancer cells that were previously cultured in the absence of EGCGT was used as a reference and was considered as 100. Percent inhibition was calculated by using the formula: % Inhibition=(OD of Reference−OD of the Test Treatment)/OD of Reference×100%.
# MMP2 = assay: Zymogram of culture media from Matrigel invasion assay, MMP2; format: cell-based, Human
# Description: (§1) The media (25-30 μl) from Matrigel Invasion studies was applied to Novex zymogram gels (Invitrogen). The gel plates were developed and stained as recommended by the manufacturer. The matrix-metalloproteinases (MMPs) bands were identified on the basis of their known molecular weights.
# (§2) The media from various treatments in the Matrigel Invasion assay (Example 4) were applied to Novex Zymogram Gel (Invitrogen). The plates were developed and stained as recommended by the manufacturer. The matrix metalloproteinases (MMPs) bands were identified on the basis of their known molecular weights (FIG. 6).
# [2] = tested on: Human breast cancer cells (MDA MB 231); assay: Matrigel invasion assay, breast cancer cells; format: cell-based; details: EGCG 50 μg/ml alone, MDA MB 231, 18 hours
# Description: The Matrigel Invasion studies were conducted using Matrigel (Becton Dickinson) inserts in compatible 24 well plates. This assay is a reliable assay for evaluating cancer metastasis.
# Human fibroblast cells were seeded and grown in the 24-well plates using culture media containing ˜10% serum. When the fibroblasts reached coalescence, the culture media with serum was withdrawn and replaced with fresh media without serum. A combination of catechin compounds plus dietary composition were added to the media without serum and human cancer cells were seeded on the upper surface of the Matrigel inserts.
# After 18 hours, the media were withdrawn. Some media were saved for zymogram studies. The cells on the upper surface of the inserts were gently scrubbed away with cotton swab. The cells that had penetrated the Matrigel membrane and had migrated into the lower surface of the Matrigel were stained with Quick Stain and were counted under a microscope.
# The general procedure for Matrigel Invasion Assay has been described above. In this assay, human breast cancer cells (5×10^4) were seeded on each insert. Various supplements were added to Leibovitz's media. The plates were incubated in an incubator in ambient air without supplemental CO2.
# MMP9 = assay: Zymogram of culture media from Matrigel invasion assay, MMP9; format: cell-based, Human; details: media of MDA MB 231 Matrigel invasion assay
# Description: as §1, §2
smiles,measurement,setting,value
"O=C(O[C@@H]1Cc2c(O)cc(O)cc2O[C@@H]1c1cc(O)c(O)c(O)c1)c1cc(O)c(O)c(O)c1 [EGCG, (−)-epigallocatechin-3-gallate]",inhibition of cell proliferation,[1]; EGCG 10 ug/ml,did not inhibit
same,inhibition of cell proliferation,[1]; EGCG 20 μg/ml alone,3%
same,inhibition of cell proliferation,[1]; EGCG 50 μg/ml,34%
same,inhibition of cell proliferation,[1]; EGCG 100 μg/ml,66%
same,inhibition of cell proliferation,[1]; EGCG 200 μg/ml,70%
same,production of MMP2 (zymogram),"MMP2; EGCG 20 ug/ml, media of MDA MB 231 Matrigel invasion assay",reduced
same,activity of MMP2 (zymogram),"MMP2; EGCG 50 μg/ml, media of MDA MB 231 Matrigel invasion assay",completely inhibited
same,activity of MMP2 (zymogram),"MMP2; EGCG 100 ug/ml, media of MDA MB 231 Matrigel invasion assay",completely inhibited
same,activity of MMP2 secreted by breast cancer cells (zymogram),"MMP2; FIG. 6 legend, concentration not given",decreases
same,inhibition of Matrigel invasion,[2],~100%
same,production of MMP9 (zymogram),MMP9; EGCG 20 ug/ml,completely inhibited
same,activity of MMP9 (zymogram),MMP9; EGCG 50 μg/ml,completely inhibited
same,activity of MMP9 (zymogram),MMP9; EGCG 100 ug/ml,completely inhibited
